According to PMC10709440, “High-throughput ligand profile characterization in novel cell lines expressing seven heterologous insect olfactory receptors for the detection of volatile plant biomarkers” (Scientific Reports, 2023):
Where two headings read alike, the source gives them in different places.

What was measured:
OR71a = system: OR71a; set-up: method as in earlier work; details: DoOR database value, ref DoOR, cited from earlier work
Drosophila OR85b = biological target: T1, Drosophila OR85b (Drosophila melanogaster, UniProt Q9VHQ7); test: cell-based; set-up: GCaMP6 calcium fluorescence in stable HEK293 OR+ORCO lines; peak dF normalised to 50 uM VUAA1 (=1); details: relative to 50 uM VUAA1 response, below 0.05 set to 0; for activity at 10 µM / activity at 100 µM / activity at 1 µM: HEK293, read-out: % activation; for % activation: agonist
T1 construct: expressed in transfected cells
T1 sequence (Q9VHQ7 1-390): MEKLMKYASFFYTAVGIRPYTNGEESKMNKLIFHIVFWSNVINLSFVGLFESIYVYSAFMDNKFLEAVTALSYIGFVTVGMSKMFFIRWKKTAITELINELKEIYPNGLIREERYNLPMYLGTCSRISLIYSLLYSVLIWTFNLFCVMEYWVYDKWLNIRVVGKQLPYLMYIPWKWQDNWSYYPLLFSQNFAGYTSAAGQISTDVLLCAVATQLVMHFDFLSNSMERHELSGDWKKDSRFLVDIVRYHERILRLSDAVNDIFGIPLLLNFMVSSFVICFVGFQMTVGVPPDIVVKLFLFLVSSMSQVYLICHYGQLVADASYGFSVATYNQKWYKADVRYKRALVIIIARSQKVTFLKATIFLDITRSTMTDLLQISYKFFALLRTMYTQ
T1 sequence (Q9VNB5 1-486 partner): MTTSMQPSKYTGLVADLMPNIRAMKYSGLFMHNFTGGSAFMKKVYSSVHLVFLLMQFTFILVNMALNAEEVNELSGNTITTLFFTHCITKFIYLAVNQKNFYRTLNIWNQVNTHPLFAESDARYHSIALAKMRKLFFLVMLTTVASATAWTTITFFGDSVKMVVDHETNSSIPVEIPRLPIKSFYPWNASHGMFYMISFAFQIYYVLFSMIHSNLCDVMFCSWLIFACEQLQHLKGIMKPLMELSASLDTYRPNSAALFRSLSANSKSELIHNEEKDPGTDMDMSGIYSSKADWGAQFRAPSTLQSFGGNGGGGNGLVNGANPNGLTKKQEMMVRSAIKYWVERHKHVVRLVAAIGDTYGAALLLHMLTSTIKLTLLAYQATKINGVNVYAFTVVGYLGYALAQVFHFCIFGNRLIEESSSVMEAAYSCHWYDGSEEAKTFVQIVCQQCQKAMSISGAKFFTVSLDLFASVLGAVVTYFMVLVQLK
Method: (§1) Twelve thousand to 18,000 cells were plated into each well of a black wall, transparent bottom 384-well microplate (Greiner) 48 h or 72 h before the measurements and were simultaneously treated with 1 μg/mL doxycycline. […] The plate has 24 columns, thus we could record responses in up to eight different cell lines in each plate. On the day of the experiment, the growth medium was replaced with 20 µL assay buffer/well (140 mM NaCl, 5 mM KCl, 2 mM CaCl2, 1 mM MgCl2, 5 mM HEPES-Na, 20 mM glucose, pH 7.3, 340 mOsm). […] Baseline fluorescence (F0) was recorded for 5 s, after which 7 µL VOC buffer (140 mM NaCl, 5 mM KCl, 2 mM CaCl2, 1 mM MgCl2, 5 mM HEPES-Na, 31 mM glucose, 0.1% DMSO, pH 7.3, 340 mOsm) was injected into each well in one row and the fluorescence response was recorded for an additional 30 s, at a rate of one read/sec. VOC solutions (VOC buffer with 4× concentration of the final measured VOC concentration, 9 µL/well was injected) were measured on the same wells in a second round with the same protocol. Each individual concentration of a specific VOC sample was recorded in three wells for the same cell line on the same microplate. The raw data were exported in xls file format, F0 and FMAX values, and the fluorescence intensity changes (∆F) were calculated in Excel (Microsoft) (Supplementary file Data summary.xlsx) using the following equation: ΔF=FMAX-F0/F0 (see also Fig. 1C). On each plate, we recorded the response of each cell line to 50 µM VUAA1. The average of these ∆F values of each cell line were used to calculate the VUAA1-normalized values for the rest of the plate, by dividing VOC response ∆F values by the average VUAA1 response ∆F value of the corresponding OR cell line. Each VOC-OR combination was measured three times as tec The recorded FMAX, F0, ∆F, VUAA1-normalized ∆F values, as well as the OR name, the name of the tested sample, and the final concentration for each well were copied into supplementary file Data summary.xlsx, that was used to summarize all the plates recorded. Here, the averages of the measurements were calculated for each receptor-VOC-concentration combination. […] Each VOC was measured at 1, 10, and 100 µM final concentration on each receptor. VUAA1-normalized response was calculated as described in methods.

Drosophila OR49b = biological target: T2, Drosophila OR49b (Drosophila melanogaster, UniProt Q9V6H2); test: cell-based; set-up: GCaMP6 calcium fluorescence in stable HEK293 OR+ORCO lines; peak dF normalised to 50 uM VUAA1 (=1); details: HEK293; relative to 50 uM VUAA1 response; below 0.05 set to 0; read-out: % activation
T2 construct: expressed in transfected cells
T2 sequence (Q9V6H2 1-375): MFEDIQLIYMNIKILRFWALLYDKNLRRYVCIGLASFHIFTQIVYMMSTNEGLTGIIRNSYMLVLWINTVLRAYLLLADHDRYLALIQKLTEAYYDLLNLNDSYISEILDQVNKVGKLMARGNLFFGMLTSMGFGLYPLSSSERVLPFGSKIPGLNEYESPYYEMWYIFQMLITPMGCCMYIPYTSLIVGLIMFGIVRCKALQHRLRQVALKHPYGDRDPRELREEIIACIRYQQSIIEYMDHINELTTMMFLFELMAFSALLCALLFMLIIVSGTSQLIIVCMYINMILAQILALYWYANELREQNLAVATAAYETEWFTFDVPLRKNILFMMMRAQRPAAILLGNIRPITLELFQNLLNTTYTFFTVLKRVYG
T2 sequence (Q9VNB5 1-486 partner): T1 sequence (Q9VNB5 1-486 partner)
Method: as §1

Drosophila OR47a = biological target: T3, Drosophila OR47a (Drosophila melanogaster, UniProt P81921); test: cell-based; set-up: GCaMP6 calcium fluorescence in stable HEK293 OR+ORCO lines; peak dF normalised to 50 uM VUAA1 (=1); details: relative to 50 uM VUAA1 response, below 0.05 set to 0; for activity at 1 µM / activity at 10 µM / activity at 100 µM: HEK293, read-out: % activation
T3 construct: expressed in transfected cells
T3 sequence (P81921 1-385): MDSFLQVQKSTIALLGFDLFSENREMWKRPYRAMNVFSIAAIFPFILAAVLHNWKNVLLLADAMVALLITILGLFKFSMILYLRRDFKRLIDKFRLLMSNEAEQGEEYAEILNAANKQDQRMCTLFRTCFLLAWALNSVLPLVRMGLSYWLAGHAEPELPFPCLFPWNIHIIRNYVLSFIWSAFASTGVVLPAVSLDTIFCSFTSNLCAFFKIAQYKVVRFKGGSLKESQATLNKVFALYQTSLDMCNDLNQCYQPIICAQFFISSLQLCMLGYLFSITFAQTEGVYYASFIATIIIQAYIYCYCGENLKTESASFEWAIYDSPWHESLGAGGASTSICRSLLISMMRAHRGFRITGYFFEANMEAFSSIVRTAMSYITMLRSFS
T3 sequence (Q9VNB5 1-486 partner): T1 sequence (Q9VNB5 1-486 partner)
Method: as §1

In the case of CC1=CC[C@@H](C(C)(C)O)CC1 [alpha-terpineol], the “OR71a DoOR response” value (OR71a) is given as 0.008.

For Cc1ccc(C)cc1 [p-xylene], the activity at 10 µM (Drosophila OR85b) was 15.2% and the activity at 100 µM (Drosophila OR85b) was 6.07%.

With C=CC(C)(O)CCC=C(C)C (stereo not shown) [linalool] the activity at 100 µM (Drosophila OR85b) was 6.3%.

For CCOC(=O)c1ccccc1 [ethyl benzoate], the “OR71a DoOR response” value (OR71a) is listed as 0.19.

For CC(C)=CCC/C(C)=C/CC/C(C)=C/CO [e,e-farnesol], the “OR71a DoOR response” value (OR71a) is given as 0.11.

C=C1[C@H]2CC[C@@H]3[C@H]2C(C)(C)CCC[C@]13C [(+)-longifolene] gave an activity at 1 µM (Drosophila OR49b) of 7.75%, an activity at 10 µM (Drosophila OR49b) of 0% and an activity at 100 µM (Drosophila OR49b) of 0%. It also gave an activity at 1 µM (Drosophila OR85b) of 8.34%, an activity at 10 µM (Drosophila OR85b) of 10.9% and an activity at 100 µM (Drosophila OR85b) of 0%. For the same compound, the activity at 1 µM (Drosophila OR47a) was 0%, the activity at 10 µM (Drosophila OR47a) was 0% and the activity at 100 µM (Drosophila OR47a) was 0%.

For Cc1cccc(C)c1 [m-xylene], the activity at 100 µM (Drosophila OR85b) was 8.8%.

In the case of COC(=O)c1ccccc1O [methyl salicylate], the “OR71a DoOR response” value (OR71a; OR71a) is listed as 0.47.

For CC(=O)OCCC(C)C [isopentyl acetate], the “OR71a DoOR response” value (OR71a) is listed as 0.03.

With C=C(C)[C@H]1CC=C(C)CC1 [limonene] the “% activation” value (Drosophila OR85b; 10 µM, 10 / OR85b) was 0.08814%, the “% activation” value (Drosophila OR85b; 100 µM, 100 / OR85b) was 0.06443% and the “% activation” value (Drosophila OR85b; 1 / OR85b, 1 µM) was 0.07022%. For the same compound, the “% activation” value (Drosophila OR47a; 10 µM, agonist, 10 / OR47a) was 0%.

In the case of Cc1ccc(O)cc1 [4-methylphenol], the “OR71a DoOR response” value (OR71a) is listed as 0.64.

In the case of COC(=O)c1ccccc1 [methyl benzoate], the activity at 1 µM (Drosophila OR49b) is given as 13.4%, the activity at 100 µM (Drosophila OR47a) is given as 5.95% and the “OR71a DoOR response” value (OR71a; OR71a) is given as 0.28.

In the case of C=C1CCC2(C(C)C)CC12 (stereo not shown) [sabinene], the activity at 1 µM (Drosophila OR85b) is reported as 6.47% and the activity at 100 µM (Drosophila OR85b) is reported as 8.7%.

With OCCc1ccccc1 [phenethyl alcohol] the activity at 100 µM (Drosophila OR49b) was 9.32%, the activity at 1 µM (Drosophila OR85b) was 9.88% and the activity at 10 µM (Drosophila OR85b) was 7.58%. It also gave an activity at 1 µM (Drosophila OR47a) of 5.64%, an activity at 10 µM (Drosophila OR47a) of 6.44% and an activity at 100 µM (Drosophila OR47a) of 5.7%. For the same compound, the “OR71a DoOR response” value (OR71a; OR71a) was 0.17.

In the case of CCCCCCCCCCCCCC [tetradecane], the activity at 1 µM (Drosophila OR49b) is reported as 6.86%, the activity at 10 µM (Drosophila OR49b) is reported as 5.2% and the activity at 1 µM (Drosophila OR85b) is reported as 9.72%. It also gave an activity at 10 µM (Drosophila OR85b) of 8.44%.

In the case of CC1=CCC2CC1C2(C)C (stereo not drawn) [alpha-pinene], the “OR71a DoOR response” value (OR71a) is given as 0.04.
